Results as given in US12225917B2 (priority 2017, dated 2025).
Where two headings read alike, the source gives them in different places.

Experiments:
Clostridium Difficile = assay: In vitro MIC and MBC against Clostridium difficile (Example 6); assay type: cell-based
[1] = Feed palatability, feed and water consumption and bird productivity study (Example 2): feed intake, water intake, bodyweight, FCR; assay type: in vivo, broiler chickens
Description: A follow-up study to determine the feed palatability, feed and water consumption and bird productivity following incorporation of a single formulation of IRP001 hemisulfate salt (unmasked) when offered to broiler chickens in-feed or in-water. The study explores the optimal treatment regime in terms of treatment start date.
Phase 1: On receipt, two hundred and seventy (270) day-old commercial broiler chickens were allocated sequentially as they are received into sixteen (16) individual floor pens, each of 16 or 17 birds, on Day 0.
Phase 2: On receipt, the ninety (90) day-old commercial broiler chickens were allocated sequentially as they are received into four (4) individual floor pens, each of 22 or 23 birds, on Day 22.
Feed intake, water intake, weight gain and mortality were used as outcome parameters.
Individual daily feed intake and individual daily water intake data by pen and then by treatment group were calculated for Phases 1 and 2 (and for the entire trial for the birds in Group/Pen 2, 15 and 16 that continue through both Phases) using figures for total feed and water provided each day to each pen divided by the number of birds in each pen. Where errors in weighing, feeding/watering or recording (or other unexplained losses of feed and water) had occurred means were adjusted by using the mean value for the same pen on the 1-2 days either side of the apparent error. Similarly, group mean bodyweights were calculated for Phase 1 using total weight/total no. birds for Day 0 and individual weights from Days 7, 14, 21, 28, 35 and 42. Total (individual) feed consumed was calculated per treatment and feed conversion ratios per treatment calculated using the expression: total (individual) feed/total (individual) weight gain. […]

[2] = test system: Clostridium Perfringens (type A strain EHE-NE36); conditions: NE challenged broilers; for median lesion scores: relative to nil-treatment; for small intestinal lesion scores: relative to nil treatment groups

Compound	MIC (Clostridium Difficile)	MIC (Clostridium Perfringens)	bodyweight ([1]; Phase 1+2, Pen 2 untreated vs 15/16 treated in-water Day 6-42, pair-wise comparison p<0.05)	bodyweight ([1]; Phase 1, unmasked treatment via drinking water (1.0 g per L) over varying periods)	bodyweight ([1]; Phase 2, treatment in-feed (2.0 g per kg of feed))	inhibition of growth at 62.5 μg/ml (Clostridium Perfringens; Necrotic Enteritis strain of C. perfringens, 62.5 μg/ml)	MIC (Clostridium Perfringens; Necrotic Enteritis strain of C. perfringens, test agent Berberine sulfate, purity 98.0%) [µg/mL]	median lesion scores ([2]; 0.1 g/L in-water)	Mortalities prior to autopsy ([2]; 0.1 g/L in-water, versus nil-treatment)	median lesion scores ([2]; 0.2 g/kg in-feed)	Mortalities prior to autopsy ([2]; 0.2 g/kg in-feed, versus nil-treatment)	small intestinal lesion scores ([2]; 1.0 g/L in-water)	Mortalities prior to autopsy ([2]; 1.0 g/L in-water, relative to nil-treatment and low-dose groups)	small intestinal lesion scores ([2]; 2.0 g/kg in-feed)	Mortalities prior to autopsy ([2]; 2.0 g/kg in-feed, relative to nil-treatment and low-dose groups)
CN[C@H](CC(C)C)C(=O)N[C@H]1C(=O)N[C@@H](CC(N)=O)C(=O)N[C@H]2C(=O)N[C@H]3C(=O)N[C@H](C(=O)N[C@H](C(=O)O)c4cc(O)cc(O)c4-c4cc3ccc4O)[C@H](O)c3ccc(c(Cl)c3)Oc3cc2cc(c3O[C@@H]2O[C@H](CO)[C@@H](O)[C@H](O)[C@H]2O[C@H]2C[C@](C)(N)[C@H](O)[C@H](C)O2)Oc2ccc(cc2Cl)[C@H]1O [Vancomycin, reference compound]	within the expected range	within the expected range	–	–	–	–	–	–	–	–	–	–	–	–	–
berberine hemisulfate [IRP001 sulfate]	–	–	no significant difference	did not appear to affect	did not appear to affect	partial inhibition of growth	125	no reduction in median lesion scores	not significantly different	no reduction in median lesion scores	not significantly different	substantial reduction in small intestinal lesion scores	significant reduction in mortalities	substantial reduction in small intestinal lesion scores	significant reduction in mortalities
